Measured values from US4283420A, “Pharmaceutically active cyclohexyl compounds and their preparation” (Labaz, priority 1978, dated 1981).

Assays:
mice [1] = assay: Anoxia as a result of confinement; type: in vivo; settings: Mus musculus, ip; at 240 mg/kg, intraperitoneal, mice; read-out: Anoxia as a result of confinement, % increase in the survival time
Procedure: Anoxia as a result of confinement
Mice (in batches of 20) are placed in a 200 cm^3 hermetically sealed chamber (a wide-mouthed glass vessel) which is under normal pressure and has a normal content of atmospheric oxygen. All of the treatments are administered intraperitoneally immediately before introduction into the chamber. The animal is considered to be dead at the moment when breathing stops.
Since the wide-mouthed vessels chosen are very small, the motor activity of the animals is extremely low and this eliminates, in principle, the possibility of a positive result due to a sedative effect.
Therefore, the percentage increase in the survival time of the treated animals is noted, relative to the batch.

Acute toxicity, peroral = settings: mouse, in vivo, po, 1100 mg/kg
Procedure: In order to locate the boundary separating the pharmacological effects from the toxicity of the products, a very approximate assessment of the toxicity was carried out on mice (batches of 10 animals) after peroral treatment.

mice [2] = assay: β-Mercaptopropionic acid seizure; type: in vivo; settings: Mus musculus, po, 0.25 h; β-mercaptopropionic acid 40 mg/kg i.p.; mice, 15 minutes after peroral treatment; read-out: β-Mercaptopropionic acid seizure, ED50
Procedure: β-Mercaptopropionic acid seizure
β-Mercaptopropionic acid is an inhibitor of glutamatedecarboxylase (GAD), which is an enzyme which catalyses the conversion of glutamate to γ-aminobutyric acid (GABA). Its action thus manifests itself in a lowering of the GABA level and the occurrence of general tonico-clonic seizures 3 to 4 minutes after it has been administered. β-Mercaptopropionic acid was administered to mice intraperitoneally at a dose of 40 mg/kg.

male OFl mice = assay: Pentetrazole seizure (mortality after i.p. pentetrazole 125 mg/kg); type: in vivo; settings: Mus musculus, po, 0.25 h; Table IV; mice, measured 15 minutes after peroral treatment; read-out: Pentetrazole seizure, ED50
Procedure: This test was carried out on batches of 10 male OFl mice which had fasted since the day before and were placed in individual cages, in accordance with the method of Cheymol (J.) Acta. Pharmacol., (1950), 2, 1-55.
The treatments were carried out perorally 15 minutes before intraperitoneal (i.p.) injection of a solution of pentetrazole (125 mg/kg).
The mortality is recorded 3 hours after this injection.
It is to be noted that the 50% effective doses (ED50), where these have been determined, were calculated by the method of MOOD (J. Am. Statist. Assoc., (1965), 60, 967-78).

mouse = assay: Ouabain seizure; type: in vivo; settings: po, 0.25 h; ouabain 5 γ/mouse intra-ventricularly; measured 15 minutes after peroral treatment; read-out: Ouabain seizure, ED50
Procedure: Ouabain was administered intra-ventricularly at a dose of 5 γ/mouse in a volume of 0.02 ml.

male Swiss mice = assay: Maximum electrical seizure; type: in vivo; settings: Mus musculus, po, 0.25 h; mice, measured 15 minutes after peroral treatment; read-out: Maximum electrical seizure, ED50
From the text: Maximum electrical seizure
The technique used is that recommended by GOODMAN (L. S.), SING-GREWALD (M.), BROWN (V. C.) and […] (E. A.), Am.
The animals tested are male Swiss mice grouped into batches of 10. The normal threshold of the electric shock which is capable of causing tonic extension of the front paws is first determined for each animal.

male mice = assay: Sedative activity: Rotarod test; type: in vivo; settings: at 700 mg/kg, peroral, mice
Procedure: This test is used for the purpose of assessing the ability of the animals to coordinate their movements. It uses a wooden cylinder which has a diameter of 4.8 cm and revolves at a speed of 4 revolutions/minute. The test is carried out on male mice weighing about 22 g. The products are administered perorally (p.o.) to batches of 10 animals per dose. The animals are placed on the apparatus 15 minutes after administration of the product. The percentage of mice which lose their equilibrium reflex, that is to say which become incapable of retaining their balance on the cylinder for a period of 2 minutes, is noted.
Using the regression straight line method, a 50% neurotoxic dose (NTD 50) is calculated, which thus expresses the average level of the first neuromuscular effects under the influence of the studied product.

C=C(Cl)CC1(C(=O)O)CCCCC1 [Example 19]
ILS at 240 mg/kg (mice [1]): 45%
mortality (Acute toxicity, peroral): 10%
ED50 (mice [2]): 300 mg/kg
ED50 (male OFl mice): 94 mg/kg
ED50 (mouse): 579 mg/kg
ED50 (male Swiss mice): 366 mg/kg
Rotarod test, % of failures (male mice): 30%
